As usually defined, the IC50 is the midpoint of a concentration-inhibition curve. For orientation: Ki means the equilibrium dissociation constant of an inhibitor or competing ligand from its target.

The results in this text go back to ChEMBL document CHEMBL1909046, “DrugMatrix in vitro pharmacology data”.

For one data set, the target named is Estrogen receptor beta (Homo sapiens, UniProt Q92731). To be noted: sf9. Note: in other assays of this panel Not Active means under 50% inhibition at 10 µM.
The target in data set [1] is Kappa-type opioid receptor (Homo sapiens, UniProt P41145). Put plainly: DRUGMATRIX: Opiate kappa (OP2, KOP) radioligand binding (ligand: [3H] Diprenorphine). Type of data set: cell membranes, HEK293, Membrane. As to conditions: Not Active = under 50% inhibition at 10 µM.
The next data set deals with D(1A) dopamine receptor (Homo sapiens, UniProt P21728). Description: DRUGMATRIX: Dopamine D1 radioligand binding (ligand: [3H] SCH-23390). As to conditions: cho; Not Active = under 50% inhibition at 10 µM. The format is cell membranes, CHO, Membrane.
The target in data set [2] is T1, Alpha-1B adrenergic receptor (Rattus norvegicus, UniProt P15823).
T1 sequence (P15823 whole entry): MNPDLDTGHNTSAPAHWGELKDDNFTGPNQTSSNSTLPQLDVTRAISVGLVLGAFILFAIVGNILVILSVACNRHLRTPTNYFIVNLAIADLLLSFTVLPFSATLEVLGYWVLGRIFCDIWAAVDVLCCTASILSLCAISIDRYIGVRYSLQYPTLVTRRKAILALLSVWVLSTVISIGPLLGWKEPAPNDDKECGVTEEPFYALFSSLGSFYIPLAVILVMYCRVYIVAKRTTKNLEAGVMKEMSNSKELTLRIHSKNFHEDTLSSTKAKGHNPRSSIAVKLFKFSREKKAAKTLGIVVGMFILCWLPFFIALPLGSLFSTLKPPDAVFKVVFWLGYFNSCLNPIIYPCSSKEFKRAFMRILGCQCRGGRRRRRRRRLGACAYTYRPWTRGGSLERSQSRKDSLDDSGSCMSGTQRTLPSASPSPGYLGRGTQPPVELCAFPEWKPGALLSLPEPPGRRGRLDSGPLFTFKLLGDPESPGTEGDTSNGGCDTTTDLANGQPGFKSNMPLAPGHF
Put plainly: DRUGMATRIX: Alpha-1B adrenergic receptor radioligand binding (ligand: prazosin). Type of data set: cell membranes, Wistar, Liver, Membrane. As to conditions: Not Active = under 50% inhibition at 10 µM.

The target in data set [3] is Voltage-gated inwardly rectifying potassium channel KCNH2 (Homo sapiens, UniProt Q12809). As to conditions: hek293. Note: in other assays of this panel Not Active means under 50% inhibition at 10 µM.
For a further data set, the target named is T2, Cytochrome P450 2A6 (Homo sapiens, UniProt P11509). Note: in other assays of this panel Not Active means under 50% inhibition at 10 µM.
T2 sequence (P11509 whole entry): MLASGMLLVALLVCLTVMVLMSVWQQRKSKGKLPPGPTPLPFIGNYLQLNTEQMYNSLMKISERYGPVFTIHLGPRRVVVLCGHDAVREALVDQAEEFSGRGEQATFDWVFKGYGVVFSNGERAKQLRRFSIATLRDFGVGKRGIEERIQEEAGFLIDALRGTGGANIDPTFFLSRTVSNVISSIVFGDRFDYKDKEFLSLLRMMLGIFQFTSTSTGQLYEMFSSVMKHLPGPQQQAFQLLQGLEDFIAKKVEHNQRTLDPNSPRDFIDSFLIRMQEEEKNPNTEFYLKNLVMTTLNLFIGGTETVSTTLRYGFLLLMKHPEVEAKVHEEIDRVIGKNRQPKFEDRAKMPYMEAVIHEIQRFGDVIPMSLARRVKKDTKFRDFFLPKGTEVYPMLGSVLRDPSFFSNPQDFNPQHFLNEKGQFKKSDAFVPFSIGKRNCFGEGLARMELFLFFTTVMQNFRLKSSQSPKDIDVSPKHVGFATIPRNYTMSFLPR
As to conditions: bti-tn-5b1-4.

Data set [4] deals with T3, 5-hydroxytryptamine receptor 2C (Homo sapiens, UniProt P28335).
T3 sequence (P28335 whole entry): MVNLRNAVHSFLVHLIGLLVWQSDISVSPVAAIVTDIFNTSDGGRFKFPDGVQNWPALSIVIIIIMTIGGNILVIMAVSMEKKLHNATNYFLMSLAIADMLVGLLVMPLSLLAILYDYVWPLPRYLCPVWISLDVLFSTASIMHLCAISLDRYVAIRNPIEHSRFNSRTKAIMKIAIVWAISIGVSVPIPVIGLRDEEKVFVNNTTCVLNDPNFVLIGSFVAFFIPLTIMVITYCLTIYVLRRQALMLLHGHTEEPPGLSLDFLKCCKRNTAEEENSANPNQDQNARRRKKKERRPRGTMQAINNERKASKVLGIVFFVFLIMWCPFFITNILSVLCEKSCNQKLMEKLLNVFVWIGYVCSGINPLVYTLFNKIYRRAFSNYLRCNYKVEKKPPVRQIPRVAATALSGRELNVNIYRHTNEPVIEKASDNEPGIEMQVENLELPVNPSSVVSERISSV
Put plainly: DRUGMATRIX: Serotonin (5-Hydroxytryptamine) 5-HT2C radioligand binding (ligand: [3H] Mesulergine). Type of data set: cell membranes, CHO-K1, Membrane. As to conditions: Not Active = under 50% inhibition at 10 µM.

Sequence of D(1A) dopamine receptor (P21728 whole entry): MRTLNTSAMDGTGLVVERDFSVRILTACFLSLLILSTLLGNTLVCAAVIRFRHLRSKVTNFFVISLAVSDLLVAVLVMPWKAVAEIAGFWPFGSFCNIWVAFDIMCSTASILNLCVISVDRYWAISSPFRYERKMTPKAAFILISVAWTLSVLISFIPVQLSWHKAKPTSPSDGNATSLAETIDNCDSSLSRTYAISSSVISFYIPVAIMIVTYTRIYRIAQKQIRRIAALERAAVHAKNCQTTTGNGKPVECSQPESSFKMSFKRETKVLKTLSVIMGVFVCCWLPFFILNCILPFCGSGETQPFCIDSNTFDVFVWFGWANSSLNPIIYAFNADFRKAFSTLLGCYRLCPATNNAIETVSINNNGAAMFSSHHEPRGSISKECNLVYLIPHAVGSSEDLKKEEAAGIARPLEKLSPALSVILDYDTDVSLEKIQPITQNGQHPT
Sequence of Estrogen receptor beta (Q92731 whole entry): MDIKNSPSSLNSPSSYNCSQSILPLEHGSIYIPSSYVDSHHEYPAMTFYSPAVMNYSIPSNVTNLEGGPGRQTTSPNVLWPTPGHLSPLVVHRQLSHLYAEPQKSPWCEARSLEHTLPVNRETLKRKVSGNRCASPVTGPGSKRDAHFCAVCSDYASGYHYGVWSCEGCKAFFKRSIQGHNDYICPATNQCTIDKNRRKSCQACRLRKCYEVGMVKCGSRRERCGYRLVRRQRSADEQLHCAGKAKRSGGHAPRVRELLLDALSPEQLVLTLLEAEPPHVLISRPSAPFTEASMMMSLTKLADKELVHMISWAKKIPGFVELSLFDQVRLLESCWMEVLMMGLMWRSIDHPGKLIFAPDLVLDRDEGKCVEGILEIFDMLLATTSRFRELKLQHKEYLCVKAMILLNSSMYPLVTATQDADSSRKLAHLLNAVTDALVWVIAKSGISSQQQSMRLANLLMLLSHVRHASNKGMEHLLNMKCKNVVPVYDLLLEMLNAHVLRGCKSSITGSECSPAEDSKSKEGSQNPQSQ
Sequence of Voltage-gated inwardly rectifying potassium channel KCNH2 (Q12809 whole entry): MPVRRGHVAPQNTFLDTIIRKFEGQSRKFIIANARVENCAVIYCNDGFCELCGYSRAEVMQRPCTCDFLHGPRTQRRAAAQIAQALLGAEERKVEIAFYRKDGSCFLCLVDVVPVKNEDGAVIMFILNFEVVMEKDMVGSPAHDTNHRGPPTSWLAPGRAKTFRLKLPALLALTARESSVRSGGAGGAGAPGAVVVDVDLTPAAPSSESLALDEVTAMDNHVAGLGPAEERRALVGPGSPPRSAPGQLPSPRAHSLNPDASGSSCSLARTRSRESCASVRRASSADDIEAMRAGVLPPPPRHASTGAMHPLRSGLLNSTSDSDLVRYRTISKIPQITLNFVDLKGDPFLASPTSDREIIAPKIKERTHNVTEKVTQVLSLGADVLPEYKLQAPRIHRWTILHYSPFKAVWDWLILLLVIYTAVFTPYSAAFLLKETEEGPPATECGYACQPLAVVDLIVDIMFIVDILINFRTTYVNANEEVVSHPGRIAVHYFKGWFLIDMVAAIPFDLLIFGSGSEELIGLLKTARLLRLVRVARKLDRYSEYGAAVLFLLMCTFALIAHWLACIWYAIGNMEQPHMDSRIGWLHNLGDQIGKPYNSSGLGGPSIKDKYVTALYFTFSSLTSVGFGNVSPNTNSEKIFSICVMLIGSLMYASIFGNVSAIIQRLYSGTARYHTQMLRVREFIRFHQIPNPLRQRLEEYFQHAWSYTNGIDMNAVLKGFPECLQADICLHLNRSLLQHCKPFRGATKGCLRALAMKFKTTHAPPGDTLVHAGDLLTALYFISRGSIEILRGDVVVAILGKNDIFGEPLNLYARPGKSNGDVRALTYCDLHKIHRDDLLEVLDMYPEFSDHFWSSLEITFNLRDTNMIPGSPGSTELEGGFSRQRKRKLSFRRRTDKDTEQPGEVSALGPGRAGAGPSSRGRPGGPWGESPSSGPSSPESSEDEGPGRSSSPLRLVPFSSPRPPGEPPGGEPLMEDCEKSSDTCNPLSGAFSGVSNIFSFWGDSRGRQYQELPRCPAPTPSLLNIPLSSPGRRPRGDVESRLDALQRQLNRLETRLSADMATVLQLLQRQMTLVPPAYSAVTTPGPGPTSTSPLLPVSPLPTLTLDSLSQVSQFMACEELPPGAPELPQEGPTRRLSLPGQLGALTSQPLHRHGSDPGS
Sequence of Kappa-type opioid receptor (P41145 whole entry): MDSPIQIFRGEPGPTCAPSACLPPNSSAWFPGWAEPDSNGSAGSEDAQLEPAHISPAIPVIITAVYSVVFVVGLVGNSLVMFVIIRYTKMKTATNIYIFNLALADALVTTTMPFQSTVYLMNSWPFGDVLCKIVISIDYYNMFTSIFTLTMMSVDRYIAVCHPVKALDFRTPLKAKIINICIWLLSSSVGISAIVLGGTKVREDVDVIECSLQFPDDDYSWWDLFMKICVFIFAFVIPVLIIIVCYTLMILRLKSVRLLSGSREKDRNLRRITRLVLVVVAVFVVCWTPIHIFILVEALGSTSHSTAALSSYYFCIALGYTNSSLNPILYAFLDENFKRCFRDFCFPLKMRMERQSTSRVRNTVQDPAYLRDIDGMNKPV

With `Cc1cnc(NC(=O)C2=C(O)c3ccccc3S(=O)(=O)N2C)s1` [MELOXICAM], the IC50 result (at Estrogen receptor beta; in data set [1] (hek293); on D(1A) dopamine receptor; in data set [2]; in data set [3]; on Cytochrome P450 2A6) was “Not Active” in each case. Besides, the IC50 entry in data set [4] (cho-k1) was “Not Active”. Further, the inhibitory constant (Ki) entry (in data set [3]; at Cytochrome P450 2A6) was “Not Active” in each case.
Turning to `Nc1nc(N)c2nc(-c3ccccc3)c(N)nc2n1`, the IC50 result (against Estrogen receptor beta; in data set [1] (hek293); on D(1A) dopamine receptor; in data set [2]; in data set [3]; against Cytochrome P450 2A6) was “Not Active” each time. In addition, the IC50 entry in data set [4] (cho-k1) is on record as “Not Active”. Besides, the Ki entry (in data set [3]; on Cytochrome P450 2A6) was “Not Active” throughout.
Take `CC(C)(C)NC[C@H](O)COc1cccc2c1CCCC2=O` [LEVOBUNOLOL]: the IC50 entry (against Estrogen receptor beta; in data set [1] (hek293); on D(1A) dopamine receptor; in data set [2]; in data set [3]; at Cytochrome P450 2A6) was “Not Active” throughout. In addition, the 50% inhibitory concentration (IC50) result in data set [4] (cho-k1) was “Not Active”. Further, the Ki result (in data set [3]; on Cytochrome P450 2A6) was “Not Active” throughout.
Consider `Cc1[nH]c(=O)c(C#N)cc1-c1ccncc1` [MILRINONE], for which the IC50 entry (against Estrogen receptor beta; in data set [1] (hek293); on D(1A) dopamine receptor; in data set [2]; at Cytochrome P450 2A6; in data set [4] (cho-k1)) was “Not Active” each time. Also, the inhibition constant (Ki) entry on Cytochrome P450 2A6 was “Not Active”.
For `Cc1cn([C@H]2C=C[C@@H](CO)O2)c(=O)[nH]c1=O` [STAVUDINE], the 50% inhibitory concentration (IC50) result (at Estrogen receptor beta; in data set [1] (hek293); on D(1A) dopamine receptor; in data set [2]; in data set [3]; against Cytochrome P450 2A6) was “Not Active” each time. In addition, the concentration for half-maximal inhibition (IC50) entry in data set [4] (cho-k1) was “Not Active”. The Ki result (in data set [3]; on Cytochrome P450 2A6) was “Not Active” throughout.
On to `CCOc1cc(N)c(Cl)cc1C(=O)NCC1CN(Cc2ccc(F)cc2)CCO1` (stereo not given) [MOSAPRIDE], for which the half-maximal inhibitory concentration (IC50) result (against Estrogen receptor beta; in data set [1] (hek293); on D(1A) dopamine receptor; in data set [2]; in data set [3]; at Cytochrome P450 2A6) was “Not Active” in each case. Besides, in data set [4] (read-out: IC50), the IC50 was 397 nM. Moreover, the Ki result in data set [3] was “Not Active”; on Cytochrome P450 2A6 it was “Not Active”; in data set [4] (read-out: Ki), 208 nM.
For `C#C[C@]1(O)CC[C@H]2[C@@H]3[C@H](C)CC4=C(CCC(=O)C4)[C@H]3CC[C@@]21C` [TIBOLONE], the IC50 entry (on Estrogen receptor beta; in data set [1] (hek293); on D(1A) dopamine receptor; in data set [2]; in data set [3]; against Cytochrome P450 2A6) was “Not Active” throughout. The half-maximal inhibitory concentration (IC50) entry in data set [4] (cho-k1) is recorded as “Not Active”. Moreover, the inhibitory constant (Ki) result (in data set [3]; at Cytochrome P450 2A6) was “Not Active” in each case.
As to `CC[C@H](C)[C@@H](CO[C@@H](Cc1ccccc1)C(=O)N[C@@H](CCS(C)(=O)=O)C(=O)OC(C)C)NC[C@@H](N)CS`, the IC50 result (at Estrogen receptor beta; in data set [1] (hek293); on D(1A) dopamine receptor; in data set [2]; in data set [3]; at Cytochrome P450 2A6) was “Not Active” throughout. For the same compound, in data set [4] (cho-k1), the 50% inhibitory concentration (IC50) result is given as “Not Active”. Further, the inhibition constant Ki entry (in data set [3]; at Cytochrome P450 2A6) was “Not Active” each time.
As to `Cc1ccc(Cl)c(Nc2ccccc2C(=O)O)c1Cl` [MECLOFENAMIC ACID], the concentration for half-maximal inhibition (IC50) result (on Estrogen receptor beta; in data set [1] (hek293); on D(1A) dopamine receptor; in data set [2]; in data set [3]; against Cytochrome P450 2A6) was “Not Active” in each case. Moreover, the IC50 entry in data set [4] (cho-k1) is given as “Not Active”. Moreover, the Ki entry (in data set [3]; on Cytochrome P450 2A6) was “Not Active” each time.
Consider `CCOC(=O)C1=C(C)NC(C)=C(C(=O)OCC)C1c1ccccc1/C=C/C(=O)OC(C)(C)C` [LACIDIPINE], for which the half-maximal inhibitory concentration (IC50) result (on Estrogen receptor beta; in data set [1] (hek293); at D(1A) dopamine receptor; in data set [2]; in data set [3]; against Cytochrome P450 2A6) was “Not Active” each time. Further, in data set [4] (cho-k1), the IC50 result was “Not Active”. Besides, the Ki result (in data set [3]; on Cytochrome P450 2A6) was “Not Active” throughout.
Take `CNCCCC12CCC(c3ccccc31)c1ccccc12` [MAPROTILINE]: the concentration for half-maximal inhibition (IC50) result (against Estrogen receptor beta; in data set [1] (hek293); in data set [3]) was “Not Active” each time. In data set [3], the inhibition constant (Ki) entry was “Not Active”.
`Cc1ccc(S(=O)(=O)NC(=O)NN2CCCCCC2)cc1` [TOLAZAMIDE]: the IC50 entry (at Estrogen receptor beta; in data set [1] (hek293); on D(1A) dopamine receptor; in data set [2]; in data set [3]; in data set [4] (cho-k1)) was “Not Active” throughout. The inhibition constant (Ki) entry in data set [3] is “Not Active”.
In the case of `CCC(C)(C)C(=O)O[C@H]1C[C@@H](C)C=C2C=C[C@H](C)[C@H](CC[C@@H]3C[C@@H](O)CC(=O)O3)[C@H]21` [SIMVASTATIN], the concentration for half-maximal inhibition (IC50) entry (on Estrogen receptor beta; in data set [1] (hek293); on D(1A) dopamine receptor; in data set [2]; in data set [4] (cho-k1)) was “Not Active” each time.
Regarding `CC[C@H](C)C(=O)O[C@H]1CCC=C2C=C[C@H](C)[C@H](CC[C@@H]3C[C@@H](O)CC(=O)O3)[C@H]21` [MEVASTATIN], the IC50 result (at Estrogen receptor beta; in data set [1] (hek293); at D(1A) dopamine receptor; in data set [2]; on Cytochrome P450 2A6; in data set [4] (cho-k1)) was “Not Active” each time. Further, at Cytochrome P450 2A6, the Ki entry is given as “Not Active”.
For the compound `CN1C[C@H](CNC(=O)OCc2ccccc2)C[C@@H]2c3cccc4c3c(cn4C)C[C@H]21` [METERGOLINE], the IC50 result was “Not Active” at Estrogen receptor beta; “Not Active” in data set [1] (hek293); 262 nM in data set [2] (read-out: IC50); “Not Active” in data set [3]; “Not Active” against Cytochrome P450 2A6. For the same compound, the Ki in data set [2] (read-out: Ki) is 145 nM; in data set [3] it was “Not Active”; on Cytochrome P450 2A6, “Not Active”.
Take `O=C1CC[C@@]2(O)[C@H]3Cc4ccc(O)c5c4[C@@]2(CCN3CC2CC2)[C@H]1O5` [NALTREXONE]: the half-maximal inhibitory concentration (IC50) result (against Estrogen receptor beta; at D(1A) dopamine receptor; in data set [2]; in data set [3]; against Cytochrome P450 2A6; in data set [4] (cho-k1)) was “Not Active” each time. In addition, the Ki result (in data set [3]; at Cytochrome P450 2A6) was “Not Active” each time.
With `CC#C[C@]1(O)CC[C@H]2[C@@H]3CCC4=CC(=O)CCC4=C3[C@@H](c3ccc(N(C)C)cc3)C[C@@]21C` [MIFEPRISTONE], the IC50 entry at Estrogen receptor beta was “Not Active”; in data set [1] (read-out: IC50), 20100 nM; on D(1A) dopamine receptor it was “Not Active”; in data set [2], “Not Active”; at Cytochrome P450 2A6 it was “Not Active”; in data set [4] (cho-k1) it was “Not Active”. Moreover, the inhibition constant (Ki) in data set [1] is 8040 nM; on Cytochrome P450 2A6, “Not Active”.
`CCN(CC)C(=S)SSC(=S)N(CC)CC`: the IC50 entry at Estrogen receptor beta is “Not Active”; in data set [1] (read-out: IC50) it was 6100 nM; in data set [2], “Not Active”; in data set [3] it was “Not Active”; against Cytochrome P450 2A6 it was “Not Active”; in data set [4] (cho-k1), “Not Active”. Further, the results for the Ki (in data set [1]; in data set [3]; at Cytochrome P450 2A6) were 2440 nM, “Not Active” and “Not Active”, respectively.
